The values below come from US20250115558A1, “PYRIDAZINE DERIVATIVES AND RELATED USES” (NodThera Limited, priority 2023, published 2025).

Each structure is given as a SMILES string. Structures can show the parent of a compound that is named as a salt.

One assay concerns THP-1. In words: THP-1 IC50 assay. The conditions noted are these: Homo sapiens; THP-1 cells. The assay is classed as cell-based.
In assay [1] the test system is IL-1β release upon NLRP3 activation in peripheral blood mononuclear cells (PBMC). Description: PBMC IC50 Determination Assay. The assay is classed as cell-based. The conditions noted are these: Homo sapiens; inhibition of IL-1β release; LPS-primed PBMC stimulated with ATP or nigericin. An outline of the steps: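 Human PBMC from buffy coats primed 3 h with LPS (1 μg/mL in protocol B), then compound for 30 min, then ATP (5 mM) or nigericin (10 μM; protocol A only) for 1 h. IL-1β released into medium measured by ELISA at 450 nm (protocol A) or HTRF at […] (protocol B).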

`Cc1cc(C(F)(F)F)cc(O)c1-c1ccc(C(C)N2CCCC2=O)nn1` (centres unmarked) [Compound 80, 1-(1-{6-[2-Hydroxy-6-methyl-4-(trifluoromethyl)phenyl]pyridazin-3-yl}ethyl)pyrrolidin-2-one]: the figures for the half-inhibitory concentration (IC50) (with THP-1; in assay [1]) were 1000 to 3000 nM and under 500 nM, respectively.
As for `Cc1cc(C(F)(F)F)cc(O)c1-c1ccc(C(C)(C)N2CCCC2=O)nn1` [Compound 81, 1-(2-{6-[2-Hydroxy-6-methyl-4-(trifluoromethyl)phenyl]pyridazin-3-yl}propan-2-yl)pyrrolidin-2-one], the IC50 (in the assay on THP-1; in assay [1]) was 1000 to 3000 nM throughout.
For the molecule `Cc1cc(C(F)(F)F)cc(O)c1-c1ccc(CNc2nccn2C)nn1` [Compound 82, 3-Methyl-2-(6-{[(1-methyl-1H-imidazol-2-yl)amino]methyl}pyridazin-3-yl)-5-(trifluoromethyl)phenol hydrochloride], the IC50 (as a rule, the concentration needed to halve the response being measured) in the assay on THP-1 lay in the range of 1000 to 3000 nM; in assay [1], 500 to 1000 nM.
The corresponding values for `Cc1cnc(NCc2ccc(-c3c(C)cc(C(F)(F)F)cc3O)nn2)s1` [Compound 83, 3-Methyl-2-(6-{[(5-methyl-1,3-thiazol-2-yl)amino]methyl}pyridazin-3-yl)-5-(trifluoromethyl)phenol] are 1000 to 3000 nM and 500 to 1000 nM.
For `Cc1cc(NCc2ccc(-c3c(C)cc(C(F)(F)F)cc3O)nn2)sn1` [Compound 84, 3-Methyl-2-(6-{[(3-methyl-1,2-thiazol-5-yl)amino]methyl}pyridazin-3-yl)-5-(trifluoromethyl)phenol], the IC50 (in the assay with THP-1; in assay [1]) was 500 to 1000 nM in each case.
Regarding `Oc1cc(C(F)(F)F)cc(C(F)(F)F)c1-c1ccc(CNC2CCOCC2)nn1` [Compound 85, 2-(6-{[(Oxan-4-yl)amino]methyl}pyridazin-3-yl)-3,5-bis(trifluoromethyl)phenol], the IC50 (in the assay on THP-1; in assay [1]) was 1000 to 3000 nM in each case.
Consider `Cc1cc(C(F)(F)F)cc(O)c1-c1ccc(C2(N3CCCC3=O)CC2)nn1` [Compound 86, 1-(1-{6-[2-Hydroxy-6-methyl-4-(trifluoromethyl)phenyl]pyridazin-3-yl}cyclopropyl)pyrrolidin-2-one], for which the concentration for half-maximal inhibition (IC50) (in the assay with THP-1; in assay [1]) was 500 to 1000 nM throughout.
As for `Cc1cc(Cl)cc(O)c1-c1ccc(CN[C@H]2CCC(=O)N(C)C2)nn1` [Compound 87, (5S)-5-({[6-(4-Chloro-2-hydroxy-6-methylphenyl)pyridazin-3-yl]methyl}amino)-1-methylpiperidin-2-one], the IC50 (in the assay with THP-1; in assay [1]) was under 500 nM throughout.
For the molecule `Cc1cc(C(F)(F)F)cc(O)c1-c1ccc(CN[C@H]2CCC(=O)N(C)C2)nn1` [Compound 88], the half-inhibitory concentration (IC50) (with THP-1; in assay [1]) was under 500 nM each time.
As for `Cc1cc(Cl)cc(O)c1-c1ccc(CN2CCCC2=S)nn1` [Compound 89, 1-{[6-(4-Chloro-2-hydroxy-6-methylphenyl)pyridazin-3-yl]methyl}pyrrolidine-2-thione], the IC50 (with THP-1; in assay [1]) was under 500 nM each time.
In the case of `Cc1cc(Cl)cc(O)c1-c1ccc(CN[C@H]2CC(=O)N(C)C2)nn1` [Compound 90, (4S)-4-({[6-(4-Chloro-2-hydroxy-6-methylphenyl)pyridazin-3-yl]methyl}amino)-1-methylpyrrolidin-2-one], the values for the IC50 (in the assay on THP-1; in assay [1]) were 500 to 1000 nM and under 500 nM, respectively.
The corresponding values for `Cc1cc(Cl)cc(O)c1-c1ccc(CN(C)[C@H]2CC(=O)N(C)C2)nn1` [Compound 91, (4S)-4-({[6-(4-Chloro-2-hydroxy-6-methylphenyl)pyridazin-3-yl]methyl}(methyl)amino)-1-methylpyrrolidin-2-one] are 1000 to 3000 nM and 1000 to 3000 nM.
For the molecule `Cc1cc(C(F)(F)F)cc(O)c1-c1ccc(CNCc2cnccn2)nn1` [Compound 92, 3-Methyl-2-(6-(((pyrazin-2-ylmethyl)amino)methyl)pyridazin-3-yl)-5-(trifluoromethyl)phenol], the IC50 in the assay on THP-1 was 3000 to 10000 nM; in assay [1], 1000 to 3000 nM.
The corresponding values for `CNCc1ccc(-c2c(C)cc(C(F)(F)F)cc2O)nn1` [Compound 93] are 1000 to 3000 nM and 1000 to 3000 nM.
As to `Cc1cc(C(F)(F)F)cc(O)c1-c1ccc(CN(C)C)nn1` [Compound 94], the IC50 (in the assay with THP-1; in assay [1]) was 1000 to 3000 nM in each case.
Regarding `Cc1cc(C(F)(F)F)cc(O)c1-c1ccc(CNCC(F)(F)F)nn1` [Compound 95], the IC50 (in the assay on THP-1; in assay [1]) was under 500 nM in each case.
Take `Cc1cc(C(F)(F)F)cc(O)c1-c1ccc(CNCC(F)F)nn1` [Compound 96]: the IC50 with THP-1 was 500 to 1000 nM; in assay [1] it was under 500 nM.
For `Cc1cc(C(F)(F)F)cc(O)c1-c1ccc(CNCC2CC2)nn1` [Compound 97], the results for the IC50 (with THP-1; in assay [1]) were 1000 to 3000 nM and 500 to 1000 nM, respectively.
For `CCNCc1ccc(-c2c(C)cc(C(F)(F)F)cc2O)nn1` [Compound 98], the IC50 in the assay with THP-1 is 500 to 1000 nM; in assay [1] it was under 500 nM.
With `Cc1cc(C(F)(F)F)cc(O)c1-c1ccc(CNC(C)C)nn1` [Compound 99], the IC50 in the assay on THP-1 was 500 to 1000 nM; in assay [1] it was under 500 nM.
For `Cc1cc(C(F)(F)F)cc(O)c1-c1ccc(CNC2CCCCC2)nn1` [Compound 100] the same measures were 1000 to 3000 nM and 1000 to 3000 nM.
Take `Cc1cc(C(F)(F)F)cc(O)c1-c1ccc(CNC2CCCC2)nn1` [Compound 101]: the IC50 in the assay on THP-1 is 500 to 1000 nM; in assay [1] it was under 500 nM.
The corresponding values for `Cc1cc(C(F)(F)F)cc(O)c1-c1ccc(CNC2CCCOC2)nn1` (centres unmarked) [Compound 102] are 1000 to 3000 nM and 500 to 1000 nM.
For the molecule `Cc1cc(C(F)(F)F)cc(O)c1-c1ccc(CNC2CCOC2)nn1` (centres unmarked) [Compound 103], the IC50 (with THP-1; in assay [1]) was under 500 nM in each case.
As for `Cc1cc(C(F)(F)F)cc(O)c1-c1ccc(CNCC2COC2)nn1` [Compound 104], the IC50 (in the assay with THP-1; in assay [1]) was 1000 to 3000 nM each time.
For the molecule `Cc1cc(C(F)(F)F)cc(O)c1-c1ccc(CNCC2CCOC2)nn1` (centres unmarked) [Compound 105], the IC50 with THP-1 lay in the range of 3000 to 10000 nM; in assay [1], 1000 to 3000 nM.
The corresponding values for `Cc1cc(C(F)(F)F)cc(O)c1-c1ccc(CNCC2CCCO2)nn1` (centres unmarked) [Compound 106] are 3000 to 10000 nM and 1000 to 3000 nM.
Take `Cc1cc(C(F)(F)F)cc(O)c1-c1ccc(CNCC2CCCCO2)nn1` (centres unmarked) [Compound 107]: the IC50 (in the assay with THP-1; in assay [1]) was 3000 to 10000 nM throughout.
As for `Cc1cc(C(F)(F)F)cc(O)c1-c1ccc(CNCC2CCCOC2)nn1` (centres unmarked) [Compound 108], the IC50 (with THP-1; in assay [1]) was 3000 to 10000 nM each time.
As to `Cc1cc(C(F)(F)F)cc(O)c1-c1ccc(CNCC2CCOCC2)nn1` [Compound 109], the half-maximal inhibitory concentration (IC50) (with THP-1; in assay [1]) was 3000 to 10000 nM each time.
In the case of `Cc1cc(C(F)(F)F)cc(O)c1-c1ccc(CNC2CCN(C)CC2)nn1` [Compound 110], the IC50 (in the assay with THP-1; in assay [1]) was 1000 to 3000 nM each time.
Regarding `Cc1cc(C(F)(F)F)cc(O)c1-c1ccc(CNC2CCC(=O)N(C)C2)nn1` (centres unmarked) [Compound 111], the IC50 (in the assay with THP-1; in assay [1]) was under 500 nM each time.
With `Cc1cc(C(F)(F)F)cc(O)c1-c1ccc(CNC2CCN(C)C(=O)C2)nn1` (centres unmarked) [Compound 112], the IC50 in the assay with THP-1 fell in the range of 1000 to 3000 nM; in assay [1], 500 to 1000 nM.
For `Cc1cc(C(F)(F)F)cc(O)c1-c1ccc(CNC2CCN(C)C2=O)nn1` (centres unmarked) [Compound 113], the values for the IC50 (in the assay on THP-1; in assay [1]) were 1000 to 3000 nM and 500 to 1000 nM, respectively.
